Measured values published in paper PMC11784839, “Monoaminergic neurotransmitters are bimodal effectors of tau aggregation” (Science Advances, 2025).

Target: tau (Homo sapiens, UniProt P10636)
Test: MCE Phenols Library screening, tau biosensor cell seeding assay (AvZ)
Format: cell-based
Settings: for AvZ (average z score of seeding, SDs from the mean level of seeding): 10 μM phenol in cell cultures, AD brain homogenate preincubated 16 hours, two biological replicates, positive = catalyzes seeding, negative = inhibits; for Z repl 1 / Z Repl 2: Z score; for Z repl 1 / raw data 1: replicate 1; for Z Repl 2 / raw data 2: replicate 2
[1] = average puncta of the two replicates
[2] = average Z score of the two replicates, tau seeding
[3] = average Z score of the two replicates, MCE Phenols Library screen
[4] = average Z score of the two replicates, tau biosensor seeding, MCE Phenols Library screen
[5] = average Z score of two replicates, Phenols Library screen

Chain of tau (P10636 623-695 limits assumed): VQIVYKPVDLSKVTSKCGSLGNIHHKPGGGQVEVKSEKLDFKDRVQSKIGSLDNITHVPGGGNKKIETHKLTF

AvZ (average z score of seeding, SDs from the mean level of seeding)	Z repl 1	Z Repl 2	av puncta (average of raw data 1 and 2)	raw data 1 (puncta)	raw data 2 (puncta)	av puncta [1]	av Z [2]	av Z [3]	av Z [4]	av Z [5]	raw data 1 (raw puncta)	raw data 2 (raw puncta)	AvZ (average z score of seeding, SDs from the mean level of seeding) (listed as 6-Hydroxy melatonin)	SMILES
0.123	0.511	-0.266	21207.9	32488.1	9927.81									CC(=O)c1ccc(O)cc1C [4?-Hydroxy-2?-methylacetophenone]
-0.59	-0.206	-0.973		23871.3	2376.21	13123.8								Oc1cc2cc[nH]c2cc1O [5,6-Dihydroxyindole]
	0.623	-0.301	21685.4	33822.8	9548.03		0.161							Cc1cc(=O)oc2cc(O)cc(O)c12 [5,7-Dihydroxy-4-methylcoumarin]
	1.798	1.915	40573.2	47932.5	33213.9				1.856					COc1cc(OC)c2c(=O)cc(-c3ccc(O)c(O)c3)oc2c1 [5,7-Dimethoxyluteolin]
-0.176	-0.552	0.2	17310.9	19721.7	14900.2									Nc1ccc(O)c(C(=O)O)c1 [5-Aminosalicylic Acid, reference compound]
	0.14	-0.394	18294	28033.5	8554.47					-0.127				COc1ccc(-c2cc(=O)c3c(O)c(OC)c(OC)cc3o2)cc1OC [5-Desmethylsinensetin]
-0.968	-0.814	-1.121	8685.03	16579.9	790.19									COc1cc(/C=C/C(=O)O)cc(O)c1O [5-Hydroxyferulic acid]
	-1.378	-0.72	7440.82	9800.36	5081.28			-1.049						O=c1cc(-c2ccccc2)oc2cccc(O)c12 [5-Hydroxyflavone]
-0.616	-0.683	-0.549		18144.2	6901.21	12522.7								Oc1ccc2[nH]ccc2c1 [5-Hydroxyindole]
0.136	-0.389	0.66	20749.6	21680.5	19818.6									COc1ccc(O)c(C(=O)O)c1 [5-Methoxysalicylic acid]
	-0.368	-0.234				16095.7		-0.301			21928.1	10263.4		COc1cc2c(=O)c(-c3ccc(O)cc3)coc2cc1O[C@@H]1O[C@H](COC(C)=O)[C@@H](O)[C@H](O)[C@H]1O [6''-O-Acetylglycitin]
0.629														CCCCC[C@H](O)CC(=O)CCc1ccc(O)c(OC)c1 [6-Gingerol]
	-0.422	0.434	19344	21288.5	17399.5					0.006				O=c1ccc2cc(O)ccc2o1 [6-Hydroxycoumarin]
	-0.171	-0.979		24297.8	2305.25	13301.5		-0.575						O=c1cc(-c2ccc(O)c(O)c2)oc2cc(O[C@@H]3O[C@H](CO)[C@@H](O)[C@H](O)[C@H]3O)c(O)c(O)c12 [6-Hydroxyluteolin 7-glucoside]
-0.003	0.345	-0.35	19759.2	30495.8	9022.73								−0.003	COc1cc2c(CCNC(C)=O)c[nH]c2cc1O [6-Hydroxymelatonin]
	0.072	-0.073	19598.9	27207.6	11990.2					-0.001				COc1ccc(-c2cc(=O)c3c(O)cc(OC)cc3o2)cc1 [7,4'-Di-O-methylapigenin]
	0.712	-0.135	23112.9	34900.1	11325.8		0.289							O=c1cc(-c2ccc(O)cc2)oc2cc(O)ccc12 [7,4'-Dihydroxyflavone]
	1.412	0.928	32989.2	43302.3	22676				1.17					O=c1cc(-c2ccccc2)oc2c(O)c(O)ccc12 [7,8-Dihydroxyflavone]
	-0.015	-0.619				16165.1		-0.317			26174.7	6155.6		O=c1ccoc2cc(O)ccc12 [7-Hydroxy-4H-chromen-4-one]
	-0.784	-0.654		16933.5	5782.42	11358		-0.719						CC(C)=CCc1c(O)c(CC=C(C)C)c2oc3c(O)cccc3c(=O)c2c1O [8-Deoxygartanin]
-0.236	0.065	-0.537				17076					27124.2	7027.77		CCCCCCC[C@H](O)CC(=O)CCc1ccc(O)c(OC)c1 [8-Gingerol]
	-0.103	0.252	20281.2	25106.7	15455.8					0.074				COc1c2ccoc2c(O)c2oc(=O)ccc12 [8-Hydroxybergapten]
-0.619	-0.921	-0.318		15293.5	9373.24	12333.4								CCCCCCCCC[C@H](O)CC(=O)CCc1ccc(O)c(OC)c1 [10-Gingerol]
-0.507														CCCCCCCCC/C=C/C(=O)CCc1ccc(O)c(OC)c1 [10-Shogaol]
	0.362	0.799	25999.8	30700.9	21298.7		0.581							C=C(C)[C@H](CC=C(C)C)Cc1c(O)cc(OC)c2c1O[C@H](c1ccc(O)cc1OC)CC2=O [(2S)-2'-Methoxykurarinone]

SMILES	AvZ (average z score of seeding, SDs from the mean level of seeding)	Z repl 1	Z Repl 2	av puncta (average of raw data 1 and 2)	raw data 1 (puncta)	raw data 2 (puncta)	av puncta [1]	av Z [2]	av Z [3]	av Z [4]	av Z [5]	raw data 1 (raw puncta)	raw data 2 (raw puncta)	AvZ (average z score of seeding, SDs from the mean level of seeding) (listed as 6-Hydroxy melatonin)
O=c1ccoc2cc(O)cc(O)c12 [5,7-Dihydroxychromone]		-1.184	-0.309		12131.6	9469.43	10800.5		-0.746					
